What was measured:
Type in all cases: in vivo
[1] = tested on: Poa annua; experiment: Herbicidal pre-emergence action; conditions: visual grading after ca. 3 weeks vs untreated controls
From the text: (§1) Seeds of mono- and dicotyledonous weed plants were sown in plastic pots (double sowings with one species of mono- and one species of dicotyledonous weed plants per pot), in sandy loam, and covered with soil. The compounds according to the invention, formulated in the form of wettable powders (WP) or as emulsifiable concentrates (EC), were applied to the surface of the covering soil as an aqueous suspension or as an emulsion, with the addition of 0.5% of an additive, at an application rate of 600 litres of water per hectare (converted). Following treatment, the pots were placed in a greenhouse and kept under optimum growth conditions for the test plants. The visual grading of the damage to the test plants is carried out after ca. 3 weeks in comparison to untreated controls (herbicidal effect in percent (%): 100% effect = plants have died, 0% effect = as control plants). Seeds of mono- and dicotyledonous weed plants were sown in plastic pots (double sowings with one species of mono- and one species of dicotyledonous weed plants per pot), in sandy loam, and covered with soil. The compounds according to the invention, formulated in the form of wettable powders (WP) or as emulsifiable concentrates (EC), were applied to the surface of the covering soil as an aqueous suspension or as an emulsion, with the addition of 0.5% of an additive, at an application rate of 600 litres of water per hectare (converted). Following treatment, the pots were placed in a greenhouse and kept under optimum growth conditions for the test plants. The visual grading of the damage to the test plants is carried out after ca. 3 weeks in comparison to untreated controls (herbicidal effect in percent (%): 100% effect = plants have died, 0% effect = as control plants).

[2] = tested on: Lolium rigidum; experiment: Herbicidal pre-emergence action; conditions: 1280 g/ha, visual grading after ca. 3 weeks vs untreated controls
From the text: as §1

[3] = tested on: Setaria viridis; experiment: Herbicidal post-emergence action; conditions: 1280 g/ha, visual assessment after ca. 3 weeks vs untreated controls
From the text: (§2) Seeds of mono- and dicotyledonous weed plants were sown in plastic pots (double sowings with one species of mono- and one species of dicotyledonous weed plants per pot), in sandy loam, covered with soil and grown under controlled growth conditions. 2 to 3 weeks after sowing, the test plants were sprayed in the single-leaf stage. The compounds according to the invention, formulated in the form of wettable powders (WP) or as emulsifiable concentrates (EC), were sprayed onto the green plant parts as an aqueous suspension or as an emulsion, with the addition of 0.5% of an additive, at an application rate of 600 litres of water per hectare (converted). The test plants were placed in the greenhouse for ca. 3 weeks under optimum growth conditions, and then the effect of the preparations is assessed visually in comparison with untreated controls (herbicidal effect in percent (%): 100% effect = plants have died, 0% effect = as control plants).
as §2, with “(EC), are” for “(EC), were”, “controls (herbicidaleffectinpercent(%):100%effect=plantshavedied,0%effect=ascontrolplants). [formula]” for “controls (herbicidal effect in percent (%): 100% effect = plants have died, 0% effect = as control plants).”

[4] = tested on: Stellaria media; experiment: Herbicidal post-emergence action; conditions: visual assessment after ca. 3 weeks vs untreated controls
From the text: as §2
as §2, with “(EC), are” for “(EC), were”, “controls (herbicidaleffectinpercent(%):100%effect=plantshavedied,0%effect=ascontrolplants). [formula]” for “controls (herbicidal effect in percent (%): 100% effect = plants have died, 0% effect = as control plants).”

[5] = tested on: Amaranthus retroflexus; experiment: Herbicidal post-emergence action; conditions: visual assessment after ca. 3 weeks vs untreated controls
From the text: as §2
as §2, with “(EC), are” for “(EC), were”, “controls (herbicidaleffectinpercent(%):100%effect=plantshavedied,0%effect=ascontrolplants). [formula]” for “controls (herbicidal effect in percent (%): 100% effect = plants have died, 0% effect = as control plants).”

[6] = tested on: Kochia scoparia; experiment: Herbicidal post-emergence action; conditions: visual assessment after ca. 3 weeks vs untreated controls
From the text: as §2
as §2, with “(EC), are” for “(EC), were”, “controls (herbicidaleffectinpercent(%):100%effect=plantshavedied,0%effect=ascontrolplants). [formula]” for “controls (herbicidal effect in percent (%): 100% effect = plants have died, 0% effect = as control plants).”

[7] = tested on: Abutilon theophrasti; experiment: Herbicidal post-emergence action; conditions: 1280 g/ha, visual assessment after ca. 3 weeks vs untreated controls
From the text: as §2
as §2, with “(EC), are” for “(EC), were”, “controls (herbicidaleffectinpercent(%):100%effect=plantshavedied,0%effect=ascontrolplants). [formula]” for “controls (herbicidal effect in percent (%): 100% effect = plants have died, 0% effect = as control plants).”

[8] = tested on: Veronica persica; experiment: Herbicidal post-emergence action; conditions: visual assessment after ca. 3 weeks vs untreated controls
From the text: as §2
as §2, with “(EC), are” for “(EC), were”, “controls (herbicidaleffectinpercent(%):100%effect=plantshavedied,0%effect=ascontrolplants). [formula]” for “controls (herbicidal effect in percent (%): 100% effect = plants have died, 0% effect = as control plants).”

[9] = tested on: Poa annua; experiment: Herbicidal post-emergence action; conditions: visual assessment after ca. 3 weeks vs untreated controls
From the text: as §2
as §2, with “(EC), are” for “(EC), were”, “controls (herbicidaleffectinpercent(%):100%effect=plantshavedied,0%effect=ascontrolplants). [formula]” for “controls (herbicidal effect in percent (%): 100% effect = plants have died, 0% effect = as control plants).”

[10] = tested on: Matricaria inodora; experiment: Herbicidal post-emergence action; conditions: visual assessment after ca. 3 weeks vs untreated controls
From the text: as §2
as §2, with “(EC), are” for “(EC), were”, “controls (herbicidaleffectinpercent(%):100%effect=plantshavedied,0%effect=ascontrolplants). [formula]” for “controls (herbicidal effect in percent (%): 100% effect = plants have died, 0% effect = as control plants).”

[11] = tested on: Stellaria media; experiment: Herbicidal pre-emergence action; conditions: 1280 g/ha, visual grading after ca. 3 weeks vs untreated controls
From the text: as §1

[12] = tested on: Amaranthus retroflexus; experiment: Herbicidal pre-emergence action; conditions: 1280 g/ha, visual grading after ca. 3 weeks vs untreated controls
From the text: as §1

[13] = tested on: Matricaria inodora; experiment: Herbicidal pre-emergence action; conditions: 1280 g/ha, visual grading after ca. 3 weeks vs untreated controls
From the text: as §1

[14] = tested on: Digitaria sanguinalis; experiment: Herbicidal pre-emergence action; conditions: 1280 g/ha, visual grading after ca. 3 weeks vs untreated controls
From the text: as §1

[15] = tested on: Veronica persica; experiment: Herbicidal pre-emergence action; conditions: 1280 g/ha, visual grading after ca. 3 weeks vs untreated controls
From the text: as §1

[16] = tested on: Alopecurus myosuroides; experiment: Herbicidal pre-emergence action; conditions: 1280 g/ha, visual grading after ca. 3 weeks vs untreated controls
From the text: as §1

[17] = tested on: Digitaria sanguinalis; experiment: Herbicidal post-emergence action; conditions: visual assessment after ca. 3 weeks vs untreated controls
From the text: as §2
as §2, with “(EC), are” for “(EC), were”, “controls (herbicidaleffectinpercent(%):100%effect=plantshavedied,0%effect=ascontrolplants). [formula]” for “controls (herbicidal effect in percent (%): 100% effect = plants have died, 0% effect = as control plants).”

[18] = tested on: Alopecurus myosuroides; experiment: Herbicidal post-emergence action; conditions: 1280 g/ha, visual assessment after ca. 3 weeks vs untreated controls
From the text: as §2
as §2, with “(EC), are” for “(EC), were”, “controls (herbicidaleffectinpercent(%):100%effect=plantshavedied,0%effect=ascontrolplants). [formula]” for “controls (herbicidal effect in percent (%): 100% effect = plants have died, 0% effect = as control plants).”

[19] = tested on: Lolium rigidum; experiment: Herbicidal post-emergence action; conditions: 1280 g/ha, visual assessment after ca. 3 weeks vs untreated controls
From the text: as §2
as §2, with “(EC), are” for “(EC), were”, “controls (herbicidaleffectinpercent(%):100%effect=plantshavedied,0%effect=ascontrolplants). [formula]” for “controls (herbicidal effect in percent (%): 100% effect = plants have died, 0% effect = as control plants).”

SMILES | herbicidal effect in percent (%), POAAN ([1]; 1280 g/ha) | herbicidal effect in percent (%), LOLRI [2] | herbicidal effect in percent (%), STEME ([4]; 1280 g/ha) | herbicidal effect in percent (%), AMARE ([5]; 1280 g/ha) | herbicidal effect in percent (%), KCHSC ([6]; 1280 g/ha) | herbicidal effect in percent (%), ABUTH [7] | herbicidal effect in percent (%), VERPE ([8]; 1280 g/ha) | herbicidal effect in percent (%), POAAN ([9]; 1280 g/ha) | herbicidal effect in percent (%), MATIN ([10]; 1280 g/ha) | herbicidal effect in percent (%), STEME [11] | herbicidal effect in percent (%), AMARE [12] | herbicidal effect in percent (%), MATIN [13] | herbicidal effect in percent (%), ALOMY [16] | herbicidal effect in percent (%), STEME ([4]; 320 g/ha) | herbicidal effect in percent (%), DIGSA ([17]; 1280 g/ha) | herbicidal effect in percent (%), VERPE ([8]; 320 g/ha) | herbicidal effect in percent (%), ALOMY [18] | herbicidal effect in percent (%), MATIN ([10]; 320 g/ha) | herbicidal effect in percent (%), LOLRI [19] | further results
O=C(Nc1ncns1)c1cc(Cl)ncc1OC(F)(F)F [Example 1-012, 2-chloro-N-(1,2,4-thiadiazol-5-yl)-5-(trifluoromethoxy)pyridine-4-carboxamide] | 90% | 100% | 100% | 100% | 90% | 90% | 100% | 90% | 100% |  |  |  |  |  |  |  |  |  |  | herbicidal effect in percent (%), SETVI [3]: 90%
O=C(Nc1nc(Cl)ns1)c1ccncc1I [Example 1-023, N-(3-chloro-1,2,4-thiadiazol-5-yl)-3-iodo-pyridine-4-carboxamide] |  | 90% | 90% | 90% | 90% |  |  | 90% | 100% | 100% | 100% | 100% |  |  |  |  |  |  |  | 
O=C(Nc1ncns1)c1c(Br)cncc1Br [Example I-015] | 100% | 90% | 100% | 90% | 100% | 100% | 100% | 100% | 100% | 90% |  | 100% | 100% | 100% | 100% | 100% | 100% | 100% | 100% | herbicidal effect in percent (%), DIGSA [14]: 100%; herbicidal effect in percent (%), VERPE [15]: 100%; herbicidal effect in percent (%), POAAN ([1]; 320 g/ha): 100%; herbicidal effect in percent (%), POAAN ([9]; 320 g/ha): 100%
O=C(Nc1ncns1)c1cc(Cl)ncc1Cl [Example I-011] | 100% | 90% | 100% | 100% | 100% | 90% | 100% | 90% | 100% | 90% | 90% | 100% | 90% | 90% | 100% | 90% | 100% | 100% | 90% | herbicidal effect in percent (%), AMARE ([5]; 320 g/ha): 90%; herbicidal effect in percent (%), KCHSC ([6]; 320 g/ha): 90%; herbicidal effect in percent (%), DIGSA ([17]; 320 g/ha): 90%

— patent EP4238973A1, “SUBSTITUTED 1,2,4-THIADIAZOLYL ISONICOTINAMIDES, SALTS OR N-OXIDES THEREOF AND THEIR USE AS HERBICIDALLY ACTIVE SUBSTANCES” (Bayer AG, priority 2022, dated 2023)
